Values after ≈ are worked out from the molar mass of the structure shown.
Key:
Type in all cases: cell-based
[1] = system: Staphylococcus aureus FDA 209PJc-1; assay: Antibacterial activity, agar-dilution MIC, organism No. 1; details: Staphylococcus aureus, FDA209PJC1; Organism No. 1, bouillon-agar; read-out: Minimum Inhibitory Concentration
Procedure, shortened: (§1)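 Endpoint: MIC in μg/ml of culture medium. Method: agar dilution. Medium: bouillon agar.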

[2] = system: Staphylococcus aureus Terajima; assay: Antibacterial activity, agar-dilution MIC, organism No. 2; details: Staphylococcus aureus; Organism No. 2, bouillon-agar; read-out: Minimum Inhibitory Concentration
Procedure, shortened: as §1

[3] = system: Staphylococcus aureus MS 353; assay: Antibacterial activity, agar-dilution MIC, organism No. 3; details: Staphylococcus aureus, MS353; Organism No. 3, bouillon-agar; read-out: Minimum Inhibitory Concentration
Procedure, shortened: as §1

[4] = system: Streptococcus pyogenes Cook; assay: Antibacterial activity, agar-dilution MIC, organism No. 4; details: Streptococcus pyogenes; Organism No. 4, bouillon-agar; read-out: Minimum Inhibitory Concentration
Procedure, shortened: as §1

[5] = system: Escherichia coli NIHJ-JC-2; assay: Antibacterial activity, agar-dilution MIC, organism No. 5; details: Escherichia coli, NIHJJC2; Organism No. 5, bouillon-agar; read-out: Minimum Inhibitory Concentration
Procedure, shortened: as §1

[6] = system: Escherichia coli K12 C600 IAM 1264; assay: Antibacterial activity, agar-dilution MIC, organism No. 6; details: Escherichia coli, IAM1264; Organism No. 6, bouillon-agar; read-out: Minimum Inhibitory Concentration
Procedure, shortened: as §1

[7] = system: Klebsiella pneumoniae PCI-602; assay: Antibacterial activity, agar-dilution MIC, organism No. 7; details: Klebsiella pneumoniae, PCI602; Organism No. 7, bouillon-agar; read-out: Minimum Inhibitory Concentration
Procedure, shortened: as §1

[8] = system: Salmonella typhimurium IID 971; assay: Antibacterial activity, agar-dilution MIC, organism No. 8; details: Salmonella enterica; Organism No. 8, bouillon-agar; read-out: Minimum Inhibitory Concentration
Procedure, shortened: as §1

Salmonella typhi 901 = assay: Antibacterial activity, agar-dilution MIC, organism No. 9; details: Salmonella enterica, TYPHI, read-out: Minimum Inhibitory Concentration
Procedure, shortened: as §1

[9] = system: Salmonella paratyphi-A 1015; assay: Antibacterial activity, agar-dilution MIC, organism No. 10; details: Salmonella enterica, PARATYPHI, read-out: Minimum Inhibitory Concentration
Procedure, shortened: as §1

[10] = system: Salmonella shottmuelleri 8006; assay: Antibacterial activity, agar-dilution MIC, organism No. 11; details: Salmonella, 8006; Organism No. 11, bouillon-agar; read-out: Minimum Inhibitory Concentration
Procedure, shortened: as §1

[11] = system: Salmonella enteritidis G 14; assay: Antibacterial activity, agar-dilution MIC, organism No. 12; details: Salmonella enterica, ENTERITIDIS; Organism No. 12, bouillon-agar; read-out: Minimum Inhibitory Concentration
Procedure, shortened: as §1

[12] = system: Serratia marcescens IAM 1184; assay: Antibacterial activity, agar-dilution MIC, organism No. 13; details: Serratia marcescens, IAM1184; Organism No. 13, bouillon-agar; read-out: Minimum Inhibitory Concentration
Excerpt: Agar-dilution method was used for determination of the antibacterial activity and antifungal activity while using bouillon-agar culture medium, and the minimum inhibitory concentration of the specimen was expressed by μg/ml of the culture medium.

[13] = system: Bacillus subtilis ATCC 6633; assay: Antibacterial activity, agar-dilution MIC, organism No. 14; details: Bacillus subtilis, ATCC6633; Organism No. 14, bouillon-agar; read-out: Minimum Inhibitory Concentration
Procedure, shortened: as §1

[14] = system: Pseudomonas aeruginosa IFO 3445; assay: Antibacterial activity, agar-dilution MIC, organism No. 15; details: Pseudomonas aeruginosa, IFO3445; Organism No. 15, bouillon-agar; read-out: Minimum Inhibitory Concentration
Procedure, shortened: as §1

[15] = system: Pseudomonas aeruginosa NCTC 10490; assay: Antibacterial activity, agar-dilution MIC, organism No. 16; details: Pseudomonas aeruginosa, NCTC10490; Organism No. 16, bouillon-agar; read-out: Minimum Inhibitory Concentration
Procedure, shortened: as §1

[16] = system: Pseudomonas aeruginosa PAO 1; assay: Antibacterial activity, agar-dilution MIC, organism No. 17; details: Pseudomonas aeruginosa, PAO1; Organism No. 17, bouillon-agar; read-out: Minimum Inhibitory Concentration
Procedure, shortened: as §1

[17] = system: Proteus morganii IFO 3848; assay: Antibacterial activity, agar-dilution MIC, organism No. 18; details: Morganella morganii, IFO3848; Organism No. 18, bouillon-agar; read-out: Minimum Inhibitory Concentration
Procedure, shortened: as §1

[18] = system: Proteus mirabilis IFO 3849; assay: Antibacterial activity, agar-dilution MIC, organism No. 19; details: Proteus mirabilis, IFO3849; Organism No. 19, bouillon-agar; read-out: Minimum Inhibitory Concentration
Procedure, shortened: as §1

Proteus vulgaris OX-19 = assay: Antibacterial activity, agar-dilution MIC, organism No. 20; details: Proteus vulgaris, OX19; Organism No. 20, bouillon-agar; read-out: Minimum Inhibitory Concentration
Procedure, shortened: as §1

Proteus vulgaris HX-19 = assay: Antibacterial activity, agar-dilution MIC, organism No. 21; details: Proteus vulgaris, HX19; Organism No. 21, bouillon-agar; read-out: Minimum Inhibitory Concentration
Procedure, shortened: as §1

[19] = system: Proteus rettgeri IFO 3850; assay: Antibacterial activity, agar-dilution MIC, organism No. 22; details: Providencia rettgeri, IFO3850; Organism No. 22, bouillon-agar; read-out: Minimum Inhibitory Concentration
Procedure, shortened: as §1

[20] = system: Enterobacter aerogenes ATCC 13048; assay: Antibacterial activity, agar-dilution MIC, organism No. 23; details: Klebsiella aerogenes, ATCC13048; Organism No. 23, bouillon-agar; read-out: Minimum Inhibitory Concentration
Procedure, shortened: as §1

Enterobacter cloacae 963 = assay: Antibacterial activity, agar-dilution MIC, organism No. 24; details: Enterobacter cloacae, 963; Organism No. 24, bouillon-agar; read-out: Minimum Inhibitory Concentration
Procedure, shortened: as §1

[21] = system: Micrococcus luteus ATCC 9341; assay: Antibacterial activity, agar-dilution MIC, organism No. 25; details: Micrococcus luteus, ATCC9341; Organism No. 25, bouillon-agar; read-out: Minimum Inhibitory Concentration
Procedure, shortened: as §1

[22] = system: Mycoplasma pneumoniae IID817; assay: Antimycoplasmal activity, MIC by phenol red colour change, organism No. 28; details: Mycoplasma, IID817; Organism No. 28, PPLO broth + 1% glucose, 37° C.; read-out: Minimum Inhibitory Concentration (MIC)
Procedure: Mycoplasma pneumoniae IID817 was used as the test microorganism in a culture medium prepared by adding 1% of glucose to "PPLO broth (manufactured by Difco Co.) liquid culture medium" at 37° C. with phenol red as an indicator, thereby culturing the test microorganism.

[23] = system: Candida albicans IAM 4905; assay: Antifungal activity, agar-dilution MIC, organism No. 29; details: Candida albicans, IAM4905; Organism No. 29, bouillon-agar; read-out: Minimum Inhibitory Concentration
Procedure, shortened: as §1

[24] = system: Aspergillus niger IFO 6342; assay: Antifungal activity, agar-dilution MIC, organism No. 30; details: Aspergillus niger, IFO6342; Organism No. 30, bouillon-agar; read-out: Minimum Inhibitory Concentration
Procedure, shortened: as §1

`[C-]#[N+]C12CC3(/C=C/C(=O)NC4=NCCS4)OC3C1O2` (stereo not shown) [compound 66] gave an MIC [1] of 12.5 µg/mL (≈ 45.1 µM), an MIC [2] of 25 µg/mL (≈ 90.2 µM) and an MIC [3] of 12.5 µg/mL (≈ 45.1 µM). For the same compound, the MIC [4] was 12.5 µg/mL (≈ 45.1 µM), the MIC [5] was 25 µg/mL (≈ 90.2 µM) and the MIC [6] was 50 µg/mL (≈ 180 µM). For the same compound, the MIC [7] was 6.25 µg/mL (≈ 22.5 µM), the MIC [8] was 25 µg/mL (≈ 90.2 µM) and the MIC (Salmonella typhi 901) was 6.25 µg/mL (≈ 22.5 µM). For the same compound, the MIC [9] was 12.5 µg/mL (≈ 45.1 µM), the MIC [10] was 12.5 µg/mL (≈ 45.1 µM) and the MIC [11] was 6.25 µg/mL (≈ 22.5 µM). The MIC [12] was greater than 200 µg/mL, the MIC [13] was 25 µg/mL (≈ 90.2 µM) and the MIC [14] was greater than 200 µg/mL. For the same compound, the MIC [15] was greater than 200 µg/mL, the MIC [16] was greater than 200 µg/mL and the MIC [17] was 3.13 µg/mL (≈ 11.3 µM). It also gave an MIC [18] of 200 µg/mL (≈ 721 µM), an MIC (Proteus vulgaris OX-19) of 3.13 µg/mL (≈ 11.3 µM) and an MIC (Proteus vulgaris HX-19) of 3.13 µg/mL (≈ 11.3 µM). The MIC [19] was greater than 200 µg/mL, the MIC [20] was greater than 200 µg/mL and the MIC (Enterobacter cloacae 963) was greater than 200 µg/mL. It also gave an MIC [21] of 0.1 µg/mL (≈ 0.361 µM), an MIC [22] of less than 0.2 µg/mL and an MIC [23] of 25 µg/mL (≈ 90.2 µM). It also gave an MIC [24] of 50 µg/mL (≈ 180 µM).
